Results as given in patent publication US12662491B2 (Redona Therapeutics, Inc., priority 2020, dated 2026).
pIC50: −log10 of the molar value. Read-outs that look alike come from different tables or passages of the source.

Target: T1, Zcchc11 enzyme (Homo sapiens, UniProt Q5TAX3)
T1 construct: made in house; host or cells: HEK293 cells (Zcchc11); E. coli Rosetta II (LIN28A)
T1 sequence (Q5TAX3 212-1420): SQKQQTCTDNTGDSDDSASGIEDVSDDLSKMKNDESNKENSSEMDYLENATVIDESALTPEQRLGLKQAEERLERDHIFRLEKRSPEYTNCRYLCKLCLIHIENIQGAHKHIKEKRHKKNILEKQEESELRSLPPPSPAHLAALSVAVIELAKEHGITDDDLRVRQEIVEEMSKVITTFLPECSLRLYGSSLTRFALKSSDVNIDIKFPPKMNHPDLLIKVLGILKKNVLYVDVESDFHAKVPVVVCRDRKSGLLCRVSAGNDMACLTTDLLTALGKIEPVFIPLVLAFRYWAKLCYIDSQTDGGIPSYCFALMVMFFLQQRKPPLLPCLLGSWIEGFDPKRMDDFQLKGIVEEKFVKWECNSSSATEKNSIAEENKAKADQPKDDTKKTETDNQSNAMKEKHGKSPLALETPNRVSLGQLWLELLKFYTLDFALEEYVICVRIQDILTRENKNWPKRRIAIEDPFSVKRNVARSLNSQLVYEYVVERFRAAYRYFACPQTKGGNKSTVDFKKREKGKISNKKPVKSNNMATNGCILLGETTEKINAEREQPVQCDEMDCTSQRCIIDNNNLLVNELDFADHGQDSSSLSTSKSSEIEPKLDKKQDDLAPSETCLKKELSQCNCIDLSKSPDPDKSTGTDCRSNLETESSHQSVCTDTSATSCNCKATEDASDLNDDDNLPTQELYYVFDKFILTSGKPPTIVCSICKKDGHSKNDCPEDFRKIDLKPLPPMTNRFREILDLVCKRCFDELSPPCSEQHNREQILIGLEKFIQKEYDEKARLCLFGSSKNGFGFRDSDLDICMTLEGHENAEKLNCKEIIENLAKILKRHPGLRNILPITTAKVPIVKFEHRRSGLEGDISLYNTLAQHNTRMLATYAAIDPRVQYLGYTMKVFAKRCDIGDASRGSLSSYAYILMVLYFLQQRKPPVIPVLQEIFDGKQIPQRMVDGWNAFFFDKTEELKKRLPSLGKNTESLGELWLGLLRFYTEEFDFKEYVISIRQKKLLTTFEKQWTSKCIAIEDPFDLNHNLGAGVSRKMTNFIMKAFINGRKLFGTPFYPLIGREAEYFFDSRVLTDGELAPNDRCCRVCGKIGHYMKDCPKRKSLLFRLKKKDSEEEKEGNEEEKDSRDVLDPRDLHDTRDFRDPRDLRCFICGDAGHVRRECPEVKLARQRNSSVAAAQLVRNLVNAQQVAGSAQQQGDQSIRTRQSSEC
Assay: TUTase assay (Zcchc11 assay, Lin28a-dependent polyuridylation of pre-let-7)
Type: biochemical
Details: read-out: Potency Lin28a-dep Z11 IC50
In short: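 LIN28A (10 nM) in pH 7.3 HEPES/KCl/MgCl2/DTT buffer was mixed with serially diluted compound, then 0.2 nM truncated human Zcchc11 and 2 nM labeled pre-let-7 were added for 30 min at room temperature. UTP (5 uM) and quench probe (4 nM) then started the reaction. Linear early rates gave IC50 values.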

[1] = Lin28a-dependent Zcchc11 (Z11) TUTase assay
[2] = Lin28a-dependent Zcchc11 (Z11) TUTase activity

Row | pIC50 [1] | pIC50 [2] | SMILES
1 | ≥ 6.00 | – | CN(C)[C@@H]1CCN(c2ccc(-n3cc(C(=O)O)c(=O)c4cc(C#N)c(N5CCC[C@@H]5COc5ncccc5Cl)cc43)cn2)C1 [Example 563, 7-((R)-2-(((3-chloropyridin-2-yl)oxy)methyl)pyrrolidin-1-yl)-6-cyano-1-(6-((R)-3-(dimethylamino)pyrrolidin-1-yl)pyridin-3-yl)-4-oxo-1,4-dihydroquinoline-3-carboxylic acid]
2 | – | ≥ 6.00 | CN(C)C1CN(c2ccc(-n3cc(C(=O)O)c(=O)c4cc(C#N)c(N5C6CCC5(COc5ncccc5F)CC6)cc43)cn2)C1 [Compound 181, 6-cyano-1-(6-(3-(dimethyl-amino)azetidin-1-yl)pyridin-3-yl)-7-(1-(((3-fluoropyridin-2-yl)oxy)methyl)-7-azabicyclo [2.2.1]heptan-7-yl)-4-oxo-1,4-dihydro-quinoline-3-carboxylic acid]
3 | ≥ 6.00 | – | O=C(O)c1cn(-c2ccc(CO)cc2F)c2cc(N3CCC[C@@H]3COc3ccccn3)c(F)cc2c1=O [Example 374, (R)-6-fluoro-1-(2-fluoro-4-(hydroxymethyl)phenyl)-4-oxo-7-(2-((pyridin-2-yloxy)methyl)pyrrolidin-1-yl)-1,4-dihydroquinoline-3-carboxylic acid]
4 | ≥ 6.00 | – | O=C(O)c1cn(-c2ccnc(N3CCC3)c2)c2cc(N3CCC[C@@H]3COc3ccccn3)c(Cl)cc2c1=O [Example 553, (R)-1-(2-(azetidin-1-yl)pyridin-4-yl)-6-chloro-4-oxo-7-(2-((pyridin-2-yloxy)methyl)pyrrolidin-1-yl)-1,4-dihydroquinoline-3-carboxylic acid]
5 | ≥ 6.00 | – | CN(C)C1CN(c2ccc(-n3cc(C(=O)O)c(=O)c4cc(Cl)c(N5CCC[C@@H]5CCOc5ccccn5)cc43)cn2)C1 [Example 591, (R)-6-chloro-1-(6-(3-(dimethylamino)azetidin-1-yl)pyridin-3-yl)-4-oxo-7-(2-(2-(pyridin-2-yloxy)ethyl)pyrrolidin-1-yl)-1,4-dihydroquinoline-3-carboxylic acid]
6 | ≥ 6.00 | – | CN(C)C1CN(c2ccc(-n3cc(C(=O)O)c(=O)c4cc(Cl)c(N5C6CC6C[C@@H]5COc5ccccn5)cc43)cn2)C1 (stereo partly drawn) [Example 619, 6-chloro-1-(6-(3-(dimethylamino)azetidin-1-yl)pyridin-3-yl)-4-oxo-7-((3R)-3-((pyridin-2-yloxy)methyl)-2-azabicyclo[3.1.0]hexan-2-yl)-1,4-dihydroquinoline-3-carboxylic acid]
7 | – | 5.00 to 6.00 | CN(C)C1CN(c2ccc(-n3cc(C(=O)O)c(=O)c4cc(Cl)c(N5CC6CC5(COc5ncccc5Cl)C6)cc43)cn2)C1 [Compound 221, 6-chloro-7-(1-[[(3-chloropyridin-2-yl)oxy]methyl]-2-azabicyclo [2.1.1]hexan-2-yl)-1-[6-[3-(dimethyl-amino)azetidin-1-yl]pyridin-3-yl]-4-oxoquinoline-3-carboxylic acid]
8 | – | ≥ 6.00 | O=C(O)c1cn(-c2ccc(O)cc2F)c2cc(N3CCC[C@@H]3COc3cccnn3)c(F)cc2c1=O [Compound 135, (R)-6-fluoro-1-(2-fluoro-4-hydroxy-phenyl)-4-oxo-7-(2-((pyridazin-3-yloxy)methyl)pyrrolidin-1-yl)-1,4-dihydro-quinoline-3-carboxylic acid]
9 | ≥ 6.00 | – | CN1CC(c2ccc(-n3cc(C(=O)O)c(=O)c4cc(Cl)c(N5CCC[C@@H]5COc5ncccc5Cl)cc43)cn2)C1 [Example 626, (R)-6-chloro-7-(2-(((3-chloropyridin-2-yl)oxy)methyl)pyrrolidin-1-yl)-1-(6-(1-methyl-azetidin-3-yl)pyridin-3-yl)-4-oxo-1,4-dihydroquinoline-3-carboxylic acid]
10 | – | ≥ 6.00 | COc1ccc(Cl)c(OCC23CC(CN2c2nc4c(cc2Cl)c(=O)c(C(=O)O)cn4-c2ccc(N4CC(N(C)C)C4)nc2)C3)n1 [Compound 279, 6-chloro-7-(1-(((3-chloro-6-methoxy-pyridin-2-yl)oxy)methyl)-2-azabicyclo [2.1.1]hexan-2-yl)-1-(6-(3-(dimethyl-amino)azetidin-1-yl)pyridin-3-yl)-4-oxo-1,4-dihydro-1,8-naphthyridine-3-carboxylic acid formic acid]
11 | – | ≥ 6.00 | O=C(O)c1cn(-c2cnn(C3CN(CC(F)F)C3)c2)c2cc(N3CCC[C@@H]3COc3ncccc3Cl)c(Cl)cc2c1=O [Compound 319, 6-Chloro-7-[(2R)-2-[[(3-chloropyridin-2-yl)oxy]methyl]pyrrolidin-1-yl]-1-[1-[1-(2,2-difluoroethyl)azetidin-3-yl]pyrazol-4-yl]-4-oxoquinoline-3-carboxylic acid]
12 | 5.00 to 6.00 | – | Cc1cccc(F)c1-n1cc(C(=O)O)c(=O)c2cc(F)c(N3CCC[C@@H]3COc3ccccn3)cc21 [Example 390, (R)-6-fluoro-1-(2-fluoro-6-methylphenyl)-4-oxo-7-(2-((pyridin-2-yloxy)methyl)pyrrolidin-1-yl)-1,4-dihydroquinoline-3-carboxylic acid]
13 | – | ≥ 6.00 | Nc1cc(-n2cc(C(=O)O)c(=O)c3cc(Cl)c(N4CCC[C@@H]4COc4ncccc4Cl)cc32)ccn1 [Compound 209, (R)-1-(2-aminopyridin-4-yl)-6-chloro-7-(2-(((3-chloropyridin-2-yl)oxy)methyl)pyrrolidin-1-yl)-4-oxo-1,4-dihydro-quinoline-3-carboxylic acid]
14 | – | ≥ 6.00 | O=C(O)c1cn(-c2ccccc2)c2cc(N3CCC[C@@H]3COc3ncccc3Cl)c(Cl)cc2c1=O [Compound 109, (R)-6-chloro-7-(2-(((3-chloropyridin-2-yl)oxy)methyl)pyrrolidin-1-yl)-4-oxo-1-phenyl-1,4-dihydro-quinoline-3-carboxylic acid]
15 | – | ≥ 6.00 | CO/N=C1\C[C@H](COc2nc(OC)ccc2Cl)N(c2cc3c(cc2Cl)c(=O)c(C(=O)O)cn3-c2ccc(N3CC(N(C)C)C3)nc2)C1 [Compound 200, (R,E)-6-chloro-7-(2-(((3-chloro-6-methoxy-pyridin-2-yl)oxy)methyl)-4-(methoxyimino)pyrrolidin-1-yl)-1-(6-(3-(dimethyl-amino)azetidin-1-yl)pyridin-3-yl)-4-oxo-1,4-dihydro-quinoline-3-carboxylic acid]
16 | ≥ 6.00 | – | O=C(O)c1cn(-c2cnc3cc[nH]c3n2)c2cc(N3CCC[C@@H]3COc3ncccc3Cl)c(Cl)cc2c1=O [Example 530, (R)-6-chloro-7-(2-(((3-chloropyridin-2-yl)oxy)methyl)pyrrolidin-1-yl)-4-oxo-1-(5H-pyrrolo[2,3-b]pyrazin-3-yl)-1,4-dihydroquinoline-3-carboxylic acid]
17 | – | ≥ 6.00 | O=C(O)c1cn(-c2ccc(O)cc2)c2cc(N3CCC[C@@H]3COc3cc4cc[nH]c4cn3)c(F)cc2c1=O [Compound 118, (R)-7-(2-(((1H-pyrrolo[2,3-c]pyridin-5-yl)oxy)methyl)pyrrolidin-1-yl)-6-fluoro-1-(4-hydroxy-phenyl)-4-oxo-1,4-dihydro-quinoline-3-carboxylic acid]
18 | ≥ 6.00 | – | CN(C)C1CN(c2ccc(-n3cc(C(=O)O)c(=O)c4cc(Cl)c(N5CCC[C@@H]5COc5ccnn5C)cc43)cn2)C1 [Example 580, (R)-6-chloro-1-(6-(3-(dimethylamino)azetidin-1-yl)pyridin-3-yl)-7-(2-(((1-methyl-1H-pyrazol-5-yl)oxy)methyl)pyrrolidin-1-yl)-4-oxo-1,4-dihydroquinoline-3-carboxylic acid]
19 | ≥ 6.00 | – | CN(C)C1CN(c2ccc(-n3cc(C(=O)O)c(=O)c4cc(F)c(N5CCC[C@@H]5COc5cc(O)ccn5)c(F)c43)cn2)C1 [Example 600, (R)-1-(6-(3-(dimethylamino)azetidin-1-yl)pyridin-3-yl)-6,8-difluoro-7-(2-(((4-hydroxypyridin-2-yl)oxy)methyl)pyrrolidin-1-yl)-4-oxo-1,4-dihydroquinoline-3-carboxylic acid]

Row | SMILES | pIC50 [1] | pIC50 [2]
20 | CC(C)(C)OC(=O)NC1CC(n2cc(C(=O)O)c(=O)c3cc(Cl)c(N4CCC[C@@H]4COc4ncccc4Cl)cc32)C1 (stereo partly drawn) [Example 484, (R)-1-(3-((tert-butoxycarbonyl)amino)cyclobutyl)-6-chloro-7-(2-(((3-chloropyridin-2-yl)oxy)methyl)pyrrolidin-1-yl)-4-oxo-1,4-dihydroquinoline-3-carboxylic acid] | ≥ 6.00 | –
